# According to ChEMBL document CHEMBL1201862, “PubChem BioAssay data set” (2004):
#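 Growth conditions: 96-well plates. Treatment: test compound, 48 hours, 5 concentrations. Analysis: linear interpolation between bracketing concentrations; unreached endpoints set to highest concentration. At the GI50, growth is halved.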 Calls of active or inactive are those of the source. Rule as the data show it: active = GI50 up to about 1.1 µM and inactive = higher.
# Tests used:
# Test in all cases: inhibition of tumour cell growth, NCI panel, 48 h
# UACC-257 = tested on: UACC-257
# CAKI-1 = tested on: CAKI-1
# RPMI-8226 = tested on: RPMI-8226
# MOLT-4 = tested on: MOLT-4
# HOP-62 = tested on: HOP-62
# T47D = tested on: T47D
# HCT-116 = tested on: HCT-116
# SF-539 = tested on: SF-539
# ACHN = tested on: ACHN
# HCC 2998 = tested on: HCC 2998
# EKVX = tested on: EKVX
# PC-3 = tested on: PC-3
# SN12C = tested on: SN12C
# NCI-H460 = tested on: NCI-H460
# Hs-578T = tested on: Hs-578T
# HL-60 = tested on: HL-60
# BT-549 = tested on: BT-549
# MCF7 = tested on: MCF7
# HCT-15 = tested on: HCT-15
# SK-MEL-28 = tested on: SK-MEL-28
SMILES,GI50 (UACC-257),GI50 (CAKI-1),GI50 (RPMI-8226),GI50 (MOLT-4),GI50 (HOP-62),GI50 (T47D),GI50 (HCT-116),GI50 (SF-539),GI50 (ACHN),GI50 (HCC 2998),GI50 (EKVX),GI50 (PC-3),GI50 (SN12C),GI50 (NCI-H460),GI50 (Hs-578T),GI50 (HL-60),GI50 (BT-549),GI50 (MCF7),GI50 (HCT-15) [µM],GI50 (SK-MEL-28)
COC(=O)c1c[nH]c2c1-c1cc(C(=O)OCc3ccccc3)n(S(=O)(=O)c3ccc(C)cc3)c1C(=O)C2=O,0.156 µM (active),1.31 µM (inactive),0.362 µM (active),0.356 µM (active),0.376 µM (active),0.871 µM (active),0.228 µM (active),0.197 µM (active),0.28 µM (active),0.578 µM (active),0.173 µM (active),0.283 µM (active),0.165 µM (active),1.24 µM (inactive),0.578 µM (active),0.144 µM (active),0.19 µM (active),0.184 µM (active),0.194,0.12 µM (active)
CC1CC[C@@]2(OC1)OC1C[C@H]3[C@@H]4CC[C@H]5CC(OC6OC(CO)C(OC7OC(CO)C(O)C(O)C7OC7OC(CO)C(O)C(O)C7O)C(O)C6O)CCC5(C)[C@H]4CCC3(C)C1[C@@H]2C (stereo partly drawn),4.31 µM (inactive),3.21 µM (inactive),1.88 µM (inactive),1.29 µM (inactive),1.44 µM (inactive),2.16 µM (inactive),1.94 µM (inactive),1.22 µM (inactive),1.54 µM (inactive),1.04 µM (active),0.977 µM (active),0.838 µM (active),2.01 µM (inactive),3.08 µM (inactive),1.99 µM (inactive),4.97 µM (inactive),1.38 µM (inactive),1.01 µM (active),10.3,2.12 µM (inactive)
O=Cc1ccc(-c2ccc(-c3ccc(CO)s3)o2)s1,0.364 µM (active),0.186 µM (active),1.54 µM (inactive),2.92 µM (inactive),17.4 µM (inactive),2.21 µM (inactive),0.841 µM (active),17.9 µM (inactive),28.7 µM (inactive),3.22 µM (inactive),23.5 µM (inactive),28.3 µM (inactive),17.7 µM (inactive),0.101 µM (active),16 µM (inactive),3.85 µM (inactive),6.24 µM (inactive),0.348 µM (active),24.4,> 35.9 µM (inactive)
CCOc1cc2c(NCCCN(CCO)CCO)ncnc2c(OCC)c1OCC,> 83.2 µM (inactive),> 100 µM (inactive),> 100 µM (inactive),> 87.1 µM (inactive),> 100 µM (inactive),> 90.4 µM (inactive),> 100 µM (inactive),> 100 µM (inactive),> 100 µM (inactive),22 µM (inactive),> 100 µM (inactive),> 100 µM (inactive),> 100 µM (inactive),> 100 µM (inactive),82.2 µM (inactive),> 89.1 µM (inactive),> 76.4 µM (inactive),> 100 µM (inactive),> 100,> 62.5 µM (inactive)
CN(C)NC1=NS(=O)(=O)c2cc3c(cc2S1)N(N(C)C)C(=O)c1cc2c(cc1N(N(C)C)C3=O)SC(NN(C)C)=NS2(=O)=O,> 10 µM (inactive),> 10 µM (inactive),> 10 µM (inactive),> 10 µM (inactive),> 10 µM (inactive),> 10 µM (inactive),> 10 µM (inactive),> 10 µM (inactive),> 10 µM (inactive),> 10 µM (inactive),> 10 µM (inactive),> 10 µM (inactive),> 10 µM (inactive),> 10 µM (inactive),> 10 µM (inactive),> 10 µM (inactive),> 10 µM (inactive),> 10 µM (inactive),> 10,> 10 µM (inactive)
O=C(O)c1ccc(S(=O)(=O)c2ccccc2[N+](=O)[O-])cc1,> 10 µM (inactive),> 10 µM (inactive),> 10 µM (inactive),> 10 µM (inactive),> 10 µM (inactive),> 10 µM (inactive),> 10 µM (inactive),> 10 µM (inactive),> 10 µM (inactive),> 10 µM (inactive),> 10 µM (inactive),> 10 µM (inactive),> 10 µM (inactive),> 10 µM (inactive),> 10 µM (inactive),> 10 µM (inactive),> 10 µM (inactive),> 10 µM (inactive),> 10,> 10 µM (inactive)
CCCCC1Cc2cc(O)ccc2-c2nc3cc(O)ccc3n21.CCCCC1Cc2cc(O)ccc2-c2nc3ccc(O)cc3n21 (stereo not drawn),15.8 µM (inactive),23.7 µM (inactive),12.4 µM (inactive),13.6 µM (inactive),14.4 µM (inactive),19.9 µM (inactive),14 µM (inactive),14.8 µM (inactive),13.9 µM (inactive),14.3 µM (inactive),17.2 µM (inactive),12.6 µM (inactive),16.5 µM (inactive),14.8 µM (inactive),16.3 µM (inactive),19.1 µM (inactive),19.2 µM (inactive),19.2 µM (inactive),11,–
CC(=S)N/C=C1/C(=O)C=C(C)OC1=O,> 100 µM (inactive),> 100 µM (inactive),> 100 µM (inactive),> 100 µM (inactive),> 100 µM (inactive),> 100 µM (inactive),> 100 µM (inactive),> 100 µM (inactive),> 100 µM (inactive),> 100 µM (inactive),> 100 µM (inactive),> 100 µM (inactive),> 100 µM (inactive),> 100 µM (inactive),> 100 µM (inactive),> 100 µM (inactive),> 100 µM (inactive),> 100 µM (inactive),> 100,–
C=C(C)C1Cc2c(cc3c(c2O)c(=O)c2ccccc2n3C)O1 (stereo not drawn),15.8 µM (inactive),2.99 µM (inactive),2.06 µM (inactive),0.372 µM (active),9.12 µM (inactive),6.67 µM (inactive),2.03 µM (inactive),2.4 µM (inactive),5.14 µM (inactive),12.1 µM (inactive),17.5 µM (inactive),5.71 µM (inactive),2.27 µM (inactive),3.1 µM (inactive),6.3 µM (inactive),2.77 µM (inactive),1.72 µM (inactive),2.94 µM (inactive),2.75,10.7 µM (inactive)
Cc1cc(O)nc2c3c(ccc12)OC(C)(C)C=C3,> 25.3 µM (inactive),5.93 µM (inactive),4.47 µM (inactive),5.16 µM (inactive),8.2 µM (inactive),> 23.3 µM (inactive),4.45 µM (inactive),3.27 µM (inactive),> 31.6 µM (inactive),9.55 µM (inactive),14.9 µM (inactive),5.9 µM (inactive),5.98 µM (inactive),3.95 µM (inactive),3.52 µM (inactive),0.43 µM (active),36.6 µM (inactive),3.48 µM (inactive),4.85,> 23.2 µM (inactive)
